Test results from patent publication US7985594B2, “Biradical polarizing agents for dynamic nuclear polarization” (Massachusetts Institute of Technology, priority 2006, dated 2011).

Key:
[1] = Solubility in aqueous media; type: physicochemical
Description: (§1) In contrast, BT2E is insoluble in all of these media.

[2] = Stability in glycerol/water; type: physicochemical; details: glycerol/water (6:4 w/w) at −10 °C for months
Description: as §1

[3] = DNP enhanced 13C-CPMAS NMR experiments (1H polarization enhancement by microwave irradiation); details: 5 mM TOTAPOL, 2 M 13C-urea in d6-DMSO/D2O/H2O, 90 K, 5 T
Description: Solutions for the DNP/NMR experiments—2 M ^13C-urea or 0.15 M U—^13C—^15N-proline—were prepared in d6-DMSO/D2O/H2O (60:34:6 w/w) or d8-glycerol/D2O/H2O (60:32:8 w/w), and doped with 5 mM TOTAPOL (10 mM electron spins). The reduced ^1H concentration was required to optimize the signal enhancements. DNP experiments using TOTAPOL as a polarizing agent were performed on a custom designed DNP/NMR spectrometer and triple-resonance (e^−, ^1H and ^13C/^15N) cryogenic (90 K) MAS probe^31 operating at 5 T (140 GHz EPR and 211 MHz ^1H NMR). The enhanced ^1H polarization developed by the microwave irradiation was detected indirectly via observation of the cross-polarized (CP) ^13C signals. The 140 GHz microwaves were generated by a gyrotron, a vacuum electron device capable of producing high power (>10 W) millimeter waves^26. In certain embodiments, sapphire, rather than zirconia, rotors are preferred for the DNP experiments since they transmit microwaves with ˜30% less attenuation. […]
The ^1H polarization is initially saturated by a series of 90° pulses followed by a delay of 3 T2. […] Note that the error for the enhancement factor is determined primarily by the uncertainty in measuring the intensity of the un-enhanced NMR signal.

## 1-(2,2,6,6-tetramethyl-1-oxy-4-piperidinyl)oxy-3-(2,2,6,6-tetramethyl-1-oxy-4-piperidinyl)amino-propan-2-ol [TOTAPOL]
[1]; 200 mM salt, solvent conditions common for protein samples
  solubility in 200 mM salt: soluble in 200 mM salt
[1]; water
  solubility in water: soluble in water
[2]
  stability in glycerol/water: stable
[3]
  time constant for growth of the enhanced signal (microwaves on): ~5.5 s
